Measurements published in patent US9850216B2 (H. LEE MOFFITT CANCER CENTER AND RESEARCH INSTITUTE, INC., priority 2013, dated 2017).
Values joined by “and” are separate entries in the source; they are usually repeats but may differ in a detail not shown here. Identical values can stand only once.

Key:
ACK1 = ACK1 (Homo sapiens, UniProt Q07912); test: ACK1 ELISA: phosphorylation of AKT-derived peptide; format: biochemical; settings: 10 μM, Table 1, replicate values listed; for inhibition at 10 µM: read-out: % Inhibition at 10 μM (ELISA)
Sequence of ACK1 (Q07912 whole entry): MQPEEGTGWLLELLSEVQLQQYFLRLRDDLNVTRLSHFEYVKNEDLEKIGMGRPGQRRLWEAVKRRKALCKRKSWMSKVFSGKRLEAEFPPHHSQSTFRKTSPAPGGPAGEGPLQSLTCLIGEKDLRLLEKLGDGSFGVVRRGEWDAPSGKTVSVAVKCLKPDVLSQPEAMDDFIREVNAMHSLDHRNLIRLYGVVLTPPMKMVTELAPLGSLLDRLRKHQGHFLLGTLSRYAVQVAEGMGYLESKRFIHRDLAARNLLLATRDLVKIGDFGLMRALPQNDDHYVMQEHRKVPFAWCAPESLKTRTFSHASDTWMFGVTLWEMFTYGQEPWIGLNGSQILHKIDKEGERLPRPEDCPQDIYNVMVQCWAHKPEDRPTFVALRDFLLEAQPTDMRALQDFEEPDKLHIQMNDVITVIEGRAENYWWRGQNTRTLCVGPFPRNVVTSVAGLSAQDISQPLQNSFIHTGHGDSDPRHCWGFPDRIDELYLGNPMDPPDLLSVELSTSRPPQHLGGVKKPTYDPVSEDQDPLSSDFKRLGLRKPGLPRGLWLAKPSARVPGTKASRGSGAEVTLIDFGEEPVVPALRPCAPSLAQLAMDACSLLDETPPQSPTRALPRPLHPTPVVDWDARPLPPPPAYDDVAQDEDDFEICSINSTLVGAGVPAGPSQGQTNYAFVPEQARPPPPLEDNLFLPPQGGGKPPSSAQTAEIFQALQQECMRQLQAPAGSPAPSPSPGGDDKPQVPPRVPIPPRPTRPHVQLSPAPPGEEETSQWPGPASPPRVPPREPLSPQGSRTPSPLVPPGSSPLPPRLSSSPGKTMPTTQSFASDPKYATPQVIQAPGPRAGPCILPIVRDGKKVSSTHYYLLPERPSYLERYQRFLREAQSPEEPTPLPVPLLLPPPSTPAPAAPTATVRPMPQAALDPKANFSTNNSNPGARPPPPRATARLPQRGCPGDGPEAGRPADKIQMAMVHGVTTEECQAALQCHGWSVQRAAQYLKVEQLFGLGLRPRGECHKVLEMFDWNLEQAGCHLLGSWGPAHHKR

| Compound | % Inhibition at 10 μM (ELISA) (ACK1) | melting point | inhibition at 10 µM (ACK1) [%] | % Inhibition at 10 μM (ELISA) (ACK1; hydrochloride) |
| --- | --- | --- | --- | --- |
| CCS(=O)(=O)c1ccccc1Nc1nc(Nc2ccc(OC)cc2)ncc1C(=O)Nc1c(F)cccc1Cl [YL7-058-1, N-(2-chloro-6-fluorophenyl)-4-(2-(ethylsulfonyl)phenylamino)-2-(4-methoxyphenylamino)pyrimidine-5-carboxamide] | −6% and 0% | 263 to 265 °C | – | – |
| CCS(=O)(=O)c1ccccc1Nc1nc(Nc2ccc(O)cc2)ncc1C(=O)Nc1c(F)cccc1Cl [YL7-058-2, N-(2-chloro-6-fluorophenyl)-4-(2-(ethylsulfonyl)phenylamino)-2-(4-hydroxyphenylamino)pyrimidine-5-carboxamide] | 68% and 43% | 201 °C (dec.) | – | – |
| CCSc1ccccc1Nc1nc(Nc2ccc(OC)cc2)ncc1C(=O)Nc1c(F)cccc1Cl [YL7-058-3, N-(2-chloro-6-fluorophenyl)-4-(2-(ethylthio)phenylamino)-2-(4-methoxyphenylamino)pyrimidine-5-carboxamide] | 1% and 0% | 250 °C (dec.) | – | – |
| CCSc1ccccc1Nc1nc(Nc2ccc(O)cc2)ncc1C(=O)Nc1c(F)cccc1Cl [YL7-058-4, N-(2-chloro-6-fluorophenyl)-4-(2-(ethylthio)phenylamino)-2-(4-hydroxyphenylamino)pyrimidine-5-carboxamide] | 24% and 47% | 233 °C (dec.) | – | – |
| CC(C)S(=O)(=O)c1ccccc1Nc1nc(Nc2ccc(N3CCOCC3)cc2)ncc1C(=O)Nc1c(F)cccc1Cl [YL7-097-1, N-(2-chloro-6-fluorophenyl)-4-(2-(isopropylsulfonyl)phenylamino)-2-(4-morpholinophenylamino)pyrimidine-5-carboxamide] | 65% | 220 °C (dec.) | 85 | – |
| CC(C)S(=O)(=O)c1ccccc1Nc1nc(Nc2ccc(S(N)(=O)=O)cc2)ncc1C(=O)Nc1c(F)cccc1Cl [YL7-100-1] | 6% | 192 °C (dec.) | 8 | – |
| O=C(Nc1c(F)cccc1Cl)c1cnc(Cl)nc1NCC1CCCO1 (stereo not drawn) [YL7-102, 2-Chloro-N-(2-chloro-6-fluorophenyl)-4-((tetrahydrofuran-2-yl)methylamino)pyrimidine-5-carboxamide] | – | 142 °C (dec.) | 0 | – |
| COc1ccc(CNc2ncc(C(=O)Nc3c(F)cccc3Cl)c(Nc3ccccc3S(=O)(=O)C(C)C)n2)cc1 [YL7-106-1, N-(2-chloro-6-fluorophenyl)-4-(2-(isopropylsulfonyl)phenylamino)-2-(4-methoxybenzylamino)pyrimidine-5-carboxamide] | 14% and 0% | 227 °C (dec.) | – | – |
| CC(C)S(=O)(=O)c1ccccc1Nc1nc(Nc2ccc(C(N)=O)cc2)ncc1C(=O)Nc1c(F)cccc1Cl [YL7-106-3, 2-(4-Carbamoylphenylamino)-N-(2-chloro-6-fluorophenyl)-4-(2-(isopropylsulfonyl)phenylamino)pyrimidine-5-carboxamide] | 43% | 230 °C (dec.) | 51 | – |
| Cl.Oc1ccc(Nc2ncc(Br)c(NCC3CCCO3)n2)cc1Cl (stereo not drawn) [YL7-172-1, 4-(5-Bromo-4-((tetrahydrofuran-2-yl)methylamino)pyrimidin-2-ylamino)-2-chlorophenol hydrochloride] | – | 193 °C (dec.) | – | 75% and 55% and 35% |
| Cl.Fc1cccc(Nc2ncc(Br)c(NCC3CCCO3)n2)c1 (stereo not drawn) [YL7-172-3, 5-Bromo-N2-(3-fluorophenyl)-N4-((tetrahydrofuran-2-yl)methyl)pyrimidine-2,4-diamine hydrochloride] | – | 194 to 197 °C | – | 69% and 21% and 25% |
| Cc1ccc(Nc2ncc(Br)c(NCC3CCCO3)n2)cc1F.Cl (stereo not drawn) [YL7-172-4, 5-Bromo-N2-(3-fluoro-4-methylphenyl)-N4-((tetrahydrofuran-2-yl)methyl)pyrimidine-2,4-diamine hydrochloride] | – | 189 °C (dec.) | – | 0% and −12% and 20% |
